Results published in patent US20220054496A1, “MODULATION OF TRF1 FOR BRAIN CANCER TREATMENT” (Fundación Del Sector Público Estatal Centro Nacional De …, priority 2018, published 2022).
“Also recorded” adds a separate entry of the source.

Legend:
h543 GSCs = assay: Sphere formation assay in patient-derived h543 GSCs; assay type: cell-based, human; conditions: for sphere formation, dose-response: 7 days; for diameter of spheres / number of spheres: vs untreated controls
Method: (§1) FIG. 48. […] (A) Dose-response curves of the h676 GSCs treated 7 days with the indicated compounds. (B) Dose-response curves of the h543 GSCs treated 7 days with the indicated compounds. Data are represented as mean±SD.
(§2) Spheres were dissociated into single cells and seeded at a density of 50, 100, 200 and 400 cells/well in a 96 well plate. Neurosphere number was assessed after 7 days. Pictures were taken using Nikon Eclipse Ti-U microscope and neurosphere diameter was measured using NIS Elements BR software.
(§3) Given the promising results the present inventors obtained with the TRF1 chemical modulators in the U251 GBM cell line, the present inventors next set to address the effects of these compounds in two independent patient-derived primary GSCs (h543 and h676) cultures.
(§4) Next, the present inventors set to address whether the different compounds were able to block sphere formation in the h676 and h543 GSCs.

TRF1 [1] = assay: Western blot of TRF1 protein levels in h676 GSCs; assay type: cell-based, human; conditions: 1 μM, 24 h
Method: FIG. 46. Screening of ETP-antitumoral library: Identification of TRF1 modulators in compounds approved by FDA or in clinical trials. (A) Drugs in ETP-antitumoral library distribution in Reactome Pathways. (B) Opera High ContentScreening system was used to identify compounds with the ability to inhibit TRF1, from representative images of confocal validation obtained from cells treated with DMSO (upper photograph of the right side of the panel and b) 1 μM of the tested compound, and determining the signal corresponding to TRF1 foci; TRF1 foci (green signal) can be appreciated clearly in the upper on the nuclear staining with DAPI (blue signal), but they have decreased in the lower photograph. (C) Representation of the inhibition of TRF1 levels by drugs belonging to different signaling pathways that modulate TRF1 at telomeres. Bar fillings vary depending on the signaling pathway. The results corresponding to three PI3K inhibitors inside the ETP-antitumoral library are represented by the three first bars from the right, validating the screening. (D) Structurally diverse MEK inhibitors tested in the chemical biology validation of the MEK/ERK pathway as modulator of TRF1 levels. (E) Structurally diverse ERK inhibitors tested in the chemical biology validation of the MEK/ERK pathway as modulator of TRF1 levels. (F) Inhibition of TRF1 levels by the MEK and ERK inhibitors represented in (D) and (E), respectively, measured by immunofluorescence. (G) Structurally diverse HSP90 inhibitors tested in the chemical biology validation of HSP90 pathway as modulator of TRF1 levels. (H) Inhibition of TRF1 levels by the HSP90 inhibitors represented in (G), measured by immunofluorescence. (I) Structurally diverse tubulin agent tested in the chemical biology validation of tubulin agents as modulator of TRF1 levels. (J) Inhibition of TRF1 levels by the tubulin agents represented in (I), measured by immunofluorescence. (K) Western Blot (up) and quantification (down) of TRF1 protein levels in the h676 GSCs after 24 h treatment with 1 μM of the indicated compounds. Data are represented as mean±SD. n represents biological replicates. Statistical analysis: unpaired t-test.
(§5) Nuclear protein extracts were obtained using Nuclear Cytosolic Fractionation Kit (Biovision) and protein concentration was determined using the Bio-Rad DC Protein Assay (Bio-Rad). Up to 15 μg of protein per extract were separated in SDS-polyacrylamide gels by electrophoresis. After protein transfer onto nitrocellulose membrane (Whatman), the membranes were incubated with the indicated antibodies. Antibody binding was detected after incubation with a secondary antibody coupled to horseradish peroxidase using chemiluminescence with ECL detection KIT (GE Healthcare)
The present inventors treated GSCs for 24 h at 1 μM concentration and assessed TRF1 protein levels by western blot.

p-AKT = p-AKT activation (p-AKT/AKT western blot) in h676 GSCs; assay type: cell-based, human; conditions: 1 μM, 24 h
Method: FIG. 47. […] Western Blot (up) and quantification (down) of p-AKT/AKT ratio in the h676 GSCs after 24 h treatment with 1 μM of the indicated compounds. Data are represented as mean±SD. n represents biological replicates.
The present inventors have confirmed the modulation of TRF1 through the PI3K-AKT pathway (Méndez-Pertuz et al., 2017). In order to check whether the novel compounds act independently of this pathway, the present inventors treated the cells for 24 h at 1 μM concentration and checked p-AKT activation. They also included in this analysis some compounds previously identified by the same research group: namely ETP-47037 (PI3Ki) (García-Beccaria et al., 2015), and ETP-50946 (FIG. 47, right graph of the lower part).

h676 GSCs [2] = assay: Drug combination studies (sphere number and diameter) in h676 GSCs; assay type: cell-based, human; conditions: number and diameter of spheres, 7 days
Excerpt: FIG. 51. […] (A-F) Quantification of number of spheres (up) and diameter (down) in h676 GSCs treated with the indicated compounds. Representative image of the spheres (left). Data are represented as mean±SD (up) or mean±SD (down), n represents biological replicates (up) or number of spheres (down). Statistical analysis: unpaired t-test.
Using this concentration as a reference point, the present inventors designed a combinatorial matrix using different concentrations of the compounds (e.g. 2×GI50, GI50 and ½ GI50) to study all the possible combinations. Combination index is calculated to establish if the combination is synergistic, additive or antagonistic (FIG. 50A).

h676 GSCs [3] = assay: Sphere formation assay in patient-derived h676 GSCs; assay type: cell-based, human; conditions: for sphere formation, dose-response: 7 days; for diameter of spheres / number of spheres: vs untreated controls
Method: as §1, §2, §3, §4

TRF1 [4] = assay: Screening of ETP-antitumoral library / phenotypic assay of TRF1 levels in CHA-9.3 cells; assay type: cell-based, mouse; conditions: for inhibition of TRF1 protein levels / TRF1 modulation in the screening: CHA-9.3 mouse lung cancer cell line, 1 μM, 24 h; for modulation of TRF1 levels by tubulin agents (validation): immunofluorescence
Method: All of them were tested at 1 μM during 24 h in the phenotypic assay that measure TRF1 levels.

TRF1 [5] = assay: Western blot of total TRF1 protein in U251 cells; assay type: cell-based, human; conditions: 10 μM, 24 h or 48 hr
Method: as §5
Quantifications: Protein-band intensities were measured with ImageJ software and normalized against the loading control.
(§6) For in vitro studies, ETP-47228 ETP-47037 and ETP-50946 were dissolved in DMSO at a final concentration of 10 or 5 mM. Cells were treated at a concentration of 10 μM for 24 h or 48 hr.
(§7) To address whether these small molecules could represent a new therapeutic strategy for the treatment of GBM, the present inventors first tested the ability of the three independent TRF1 inhibitory molecules (ETP-47228, ETP-47037 and ETP-50946) to downregulate TRF1 protein levels in the U251 human GBM cell line.

U251 cells = assay: Neurosphere formation assay in U251 cells; assay type: cell-based, human; conditions: U251 in NSC media; seven days; vs DMSO
Method: as §2
Finally, the present inventors checked if the three chemical compounds had the ability to reduce sternness in these cells. They cultured U251 cells with NSC media in order to obtain a suspension culture enriched in stem cells. The inventors performed a sphere formation assay with these cells treated with ETP-47228, ETP-47037 and ETP-50946 or DMSO for seven days. […] Of note, all these effects recapitulated what the present inventors observed with Trf1 genetic downregulation (See 2.2).

TRF1 [6] = assay: TRF1 nuclear immunofluorescence (TRF1 foci) in U251 cells; assay type: cell-based, human; conditions: 10 μM, 24 h or 48 hr
Method: For immunofluorescence analyses, cells were plated in a proper density in cell culture μCLEAR plates (Greiner) and fixed in 4% formaldehyde in PBS. Cells were permeabilized with 0.25% Triton in PBS and blocked with 5% BSA in PBS. Tissue sections were fixed in 10% buffered formalin (Sigma) and embedded in paraffin. After deparaffinization and citrate antigen retrieval, sections were permeabilized with 0.5% Triton in PBS and blocked with 1% BSA and 10% Australian FBS ([…]) in PBS. The antibodies were applied overnight in antibody diluents with background reducing agents (Invitrogen).
Immunofluorescence images were obtained using a confocal ultraspectral microscope (Leica TCS-SP5) or the Opera High Content Screening (HCS) system (Perkin Elmer). Quantifications were performed with Definiens software.
as §6, §7

[7] = tested on: K-Ras^G12V-induced lung tumors; conditions: p53-deficient background; cited from earlier work

Row | Structure (SMILES) | degree of TRF1 inhibition (TRF1 protein levels by western blot) (TRF1 [1]) | dependence on p-AKT (p-AKT activation) (p-AKT) | synergic effect in combination with PI3Ki (ETP-47037) (h676 GSCs [2]) | inhibition of TRF1 protein levels / TRF1 modulation in the screening (TRF1 [4]) | also measured
1 | Nc1ccn([C@@H]2O[C@H](CO)[C@@H](O)C2(F)F)c(=O)n1 [Gemcitabine] | medium TRF1 modulators | act independently of p-AKT | significant synergic effect | inhibit TRF1 protein levels; also recorded: novel TRF1 modulators | sphere formation, dose-response (h543 GSCs): most potent compounds; sphere formation, dose-response (h676 GSCs [3]): most potent compounds
2 | COc1ccc(-c2ccc3c(N4CCOCC4)nc(N4C[C@@H](C)O[C@@H](C)C4)nc3n2)cc1CO [KU-0063794] | medium TRF1 modulators | p-AKT dependent | – | inhibit TRF1 protein levels; also recorded: novel TRF1 modulators | –
3 | C[C@@H](Oc1cc(-n2cnc3ccc(CN4CCN(C)CC4)cc32)sc1C(N)=O)c1ccccc1C(F)(F)F [GSK461364] | no ability to downregulate TRF1 | p-AKT dependent | – | inhibit TRF1 protein levels; also recorded: novel TRF1 modulators | –
4 | CC(=O)O[C@H]1C(=O)[C@@]2(C)[C@H]([C@H](OC(=O)c3ccccc3)[C@]3(O)C[C@H](OC(=O)[C@H](O)[C@@H](NC(=O)c4ccccc4)c4ccccc4)C(C)=C1C3(C)C)[C@]1(OC(C)=O)CO[C@@H]1C[C@@H]2O [paclitaxel] | – | – | – | – | modulation of TRF1 levels by tubulin agents (validation) (TRF1 [4]): more strongly
5 | O=C(Nc1ccc2[nH]nc(-c3ccncc3)c2c1)[C@@H]1CCN(CC(=O)N2CCN(c3ccc(-c4ncccn4)cc3)CC2)C1 [SCH772984] | potent TRF1 modulators | act independently of p-AKT | significant synergic effect | novel TRF1 modulators | inhibition of TRF1 protein levels / TRF1 modulation in the screening (TRF1 [4]; listed as ERKi): inhibit TRF1 protein levels
6 | CN1CC[C@H](c2c(O)cc(O)c3c(=O)cc(-c4ccccc4Cl)oc23)[C@H](O)C1 [Flavopiridol] | medium TRF1 modulators | act independently of p-AKT | – | inhibit TRF1 protein levels; also recorded: novel TRF1 modulators | –
7 | NC(Cc1ccccc1)c1csc(Nc2ncccn2)n1 (racemic) [ETP-50946] | – | – | – | – | diameter of spheres (h543 GSCs): significant drastic reduction; number of spheres (h543 GSCs): significant drastic reduction; total TRF1 protein levels (western blot) (TRF1 [5]): effectively reduced; diameter of neurospheres (U251 cells): strong reduction; number of neurospheres (U251 cells): strong reduction; diameter of spheres (h676 GSCs [3]): significant drastic reduction; number of spheres (h676 GSCs [3]): significant drastic reduction; TRF1 foci (immunofluorescence) (TRF1 [6]): effectively reduced
8 | COc1cc(Nc2ncc3c(n2)-c2ccc(Cl)cc2C(c2c(F)cccc2OC)=NC3)ccc1C(=O)O [Alisertib] | no ability to downregulate TRF1 | act independently of p-AKT | – | inhibit TRF1 protein levels; also recorded: novel TRF1 modulators | –
9 | CC(=O)O[C@@]12CO[C@@H]1C[C@H](O)[C@@]1(C)C(=O)[C@H](O)C3=C(C)[C@@H](OC(=O)[C@H](O)[C@@H](NC(=O)OC(C)(C)C)c4ccccc4)C[C@@](O)([C@@H](OC(=O)c4ccccc4)[C@H]21)C3(C)C [Docetaxel] | medium TRF1 modulators | act independently of p-AKT | significant synergic effect | inhibit TRF1 protein levels; also recorded: novel TRF1 modulators | sphere formation, dose-response (h543 GSCs): most potent compounds; sphere formation, dose-response (h676 GSCs [3]): most potent compounds; modulation of TRF1 levels by tubulin agents (validation) (TRF1 [4]): more strongly
10 | Cc1cnc2c(N3CCOCC3)nc(-c3ccc(NC(=O)Nc4ccc(C(=O)N5CCN(C)CC5)cc4)cc3)cn12 [ETP-47228] | – | – | – | – | diameter of spheres (h543 GSCs): significant drastic reduction; number of spheres (h543 GSCs): significant drastic reduction; growth of already established lung adenocarcinomas [7]: effectively impair the growth; total TRF1 protein levels (western blot) (TRF1 [5]): effectively reduced; diameter of neurospheres (U251 cells): strong reduction; number of neurospheres (U251 cells): strong reduction; diameter of spheres (h676 GSCs [3]): significant drastic reduction; number of spheres (h676 GSCs [3]): significant drastic reduction; TRF1 foci (immunofluorescence) (TRF1 [6]): effectively reduced
